Data from PubChem BioAssay AID1963429 (Molecular Pharmacology Branch, DTP, NCI, 2024).

Test system: 126254-015-R-J1-PDC complex spheroid growth, % test/control
Assay: Anticancer human tumor 126254-015-R-J1-PDC patient-derived soft tissue sarcoma cell line growth inhibition [Asc]
Conditions: for IC50: curve of first compound; for viability, T/C: stronger effect = lower value
Experimental: Multicellular complex tumor spheroid response to apoptosis pathway targeting inhibitors Alrizomadlin, Pelcitoclax, and Dasminapant in combination with a variety of drugs and investigational agents in selected tumor cell lines
The MDM2 inhibitor alrizomadlin, the Bcl-2/Bcl-xL inhibitor pelcitoclax, and the IAPs inhibitor dasminapant were evaluated both individually and in combination with standard of care and investigational anticancer small molecules within a complex spheroid model of solid tumors. . Complex spheroids include a stromal component modeled by human endothelial cells (HUVEC) and fibroblasts modeled by human mesenchymal stem cells (MSCs). The concentration ranges selected for each drug and investigational agent were based upon clinically achievable concentrations if the clinical Cmax of the agent was known.
Compounds. The drugs and investigational agents: alrizomadlin (APG-115; NSC831270), pelcitoclax (APG-1252; NSC835773), dasminapant (APG-1387;NSC834197), TAK-243 (NSC785004), copanlisib (NSC809693), olaparib (NSC753686), talazoparib (NSC767125), cobimetinib (NSC 768068), eltanexor (KPT-8602, NSC 794443), abemaciclib (NSC 768073), sotorasib (NSC818433), adagrasib (NSC 831453), MRTX-1133 (NSC 836407), Iadademestat (ORY1001, NSC 806812), and RMC-4630 (NSC839698), were obtained from the NCI Developmental Therapeutics Program Chemical Repository. The FDA-approved anticancer drug set is available from the Developmental Therapeutics Program at https://dtp.cancer.gov/organization/dscb/obtaining/available plates.htm. […] The stock solutions were prepared in dimethyl sulfoxide (DMSO, Sigma-Aldrich, St. Louis, MO, cat. D2650) at 800-fold the tested concentration and stored at -70 degrees C prior to their use. All drugs and investigational agents were tested over a range starting from a high concentration at or near the clinical Cmax and decreasing in half-log increments. If the clinical Cmax for an agent had not been determined, the highest concentration tested was 10 microM.
The patient-derived cancer (PDC) cell lines include five colon adenocarcinomas: 186277-243-T-J2-PDC, 616215-338-R-J1-PDC, 439559-082-T-J2-PDC, 463943-066-T-J2-PDC, and 519858-162-T-J1-PDC; three pancreatic carcinomas: 323965-272-R-J2-PDC, 521955-158-R6-J3-PDC, and 521955-158-R2-J5-PDC; two uterine sarcomas: 327498-152-R-J2-PDC and 993429-296-R-J1-PDC; two rhabdomyosarcomas: 755483-174-R-J1-PDC and 772245-204-R-J1-PDC; two soft tissue sarcomas: 126254-015-R-J1-PDC and 494315-158-R-J1-PDC; two malignant fibrous histiocytomas: 317291-083-R-J1-PDC and 596521-263-R-J1-PDC; two breast carcinomas: 171881-019-R-J1-PDC and 885512-296-R-J2-PDC; and one ovarian carcinoma: 6556581-035-R-J-PDC were obtained from the NCI PDMR, (https://pdmr.cancer.gov). The established cell lines HSSY-2 synovial sarcoma (RRID:CVCL 8719), SYO-1 synovial sarcoma (RRID:CVCL_7146), MPNST malignant peripheral neural sheath tumor were obtained from the Sloan Kettering Institute. The following established cell lines were purchased from the American Type Culture Collection (ATCC, Manassas, VA), Sor the received from the NCI repository:, PANC-1 pancreatic carcinoma (CRL-1469, RRID:CVCL_0480), OVCAR-5 ovarian carcinoma (RRID:CVCL_1628), OVCAR-8 ovarian carcinoma (RRID:CVCL_1629), , MCF-7 breast carcinoma (CRL-12584, RRID:CVCL_0031), MDA-MB-231 breast carcinoma (CRL-12532, RRID:CVCL_0062), NCI-H1876 small cell lung carcinoma (CRL-5902, RRID:CVCL_1503), NCI-H510A small cell lung carcinoma (HTB-184, RRID:CVCL_1565), NCI-H1417 (CRL-5869, RRID:CVCL_1469), and NCI-H196 small cell lung carcinoma (CRL-5823, RRID:CVCL_1509). Dr. Peter Houghton (Greehey Children's Cancer Research Institute, University of Texas Health Science Center, San Antonio, TX) provided Rh-18 rhabdomyosarcoma (RRID:CVCL_1659). Pooled donor human umbilical vein endothelial cells (HUVEC, Lonza, cat. CC-2519) and human mesenchymal stem cells (hMSC, Lonza, cat. PT-2501) were purchased from Lonza (Walkersville, MD).
Cell Culture. […]

[1] = second compound 0.03 µM, first compound 0.0316 µM
[2] = second compound 0.03 µM, first compound 0.1 µM
[3] = second compound 0.03 µM, first compound 0.316 µM
[4] = second compound 0.03 µM, first compound 1 µM
[5] = second compound 0.0949 µM, first compound 0.0316 µM
[6] = second compound 0.0949 µM, first compound 0.1 µM
[7] = second compound 0.0949 µM, first compound 0.316 µM
[8] = second compound 0.0949 µM, first compound 1 µM
[9] = second compound 0.3 µM, first compound 0.0316 µM
[10] = second compound 0.3 µM, first compound 0.1 µM
[11] = second compound 0.3 µM, first compound 0.316 µM
[12] = second compound 0.3 µM, first compound 1 µM
[13] = second compound 0.949 µM, first compound 0.0316 µM
[14] = second compound 0.949 µM, first compound 0.1 µM
[15] = second compound 0.949 µM, first compound 0.316 µM
[16] = second compound 0.949 µM, first compound 1 µM
[17] = second compound 3 µM, first compound 0.0316 µM
[18] = second compound 3 µM, first compound 0.1 µM
[19] = second compound 3 µM, first compound 0.316 µM
[20] = second compound 3 µM, first compound 1 µM
[21] = second compound 0.03 µM, first compound 3.16 µM
[22] = second compound 0.03 µM, first compound 10 µM
[23] = second compound 0.0949 µM, first compound 3.16 µM
[24] = second compound 0.0949 µM, first compound 10 µM
[25] = second compound 0.3 µM, first compound 3.16 µM
[26] = second compound 0.3 µM, first compound 10 µM
[27] = second compound 0.949 µM, first compound 3.16 µM
[28] = second compound 0.949 µM, first compound 10 µM
[29] = second compound 3 µM, first compound 3.16 µM
[30] = second compound 3 µM, first compound 10 µM
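Note: spheroids exposed to compound for seven days.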
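Throughout, for viability, T/C: 100% = DMSO vehicle control wells.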

SMILES | IC50 (second compound 0.03 µM) [nM] | IC50 (second compound 0.0949 µM) [nM] | IC50 (second compound 0.3 µM) [nM] | IC50 (second compound 0.949 µM) [nM] | IC50 (second compound 3 µM) [nM] | viability, T/C [1] [%] | viability, T/C [2] [%] | viability, T/C [3] [%] | viability, T/C [4] [%] | viability, T/C [5] [%] | viability, T/C [6] [%] | viability, T/C [7] [%] | viability, T/C [8] [%] | viability, T/C [9] [%] | viability, T/C [10] [%] | viability, T/C [11] [%] | viability, T/C [12] [%] | viability, T/C [13] [%] | viability, T/C [14] [%] | viability, T/C [15] [%] | other results
O=C(c1ccc(F)c(F)c1Nc1ccc(I)cc1F)N1CC(O)([C@@H]2CCCCN2)C1 + CCN1C(C(=O)NC23CCC(C(=O)O)(CC2)CC3)C(c2cccc(Cl)c2F)C2(C(=O)Nc3cc(Cl)ccc32)C12CCCCC2 | 552 | 622 | 570 | 638 | 641 | 97.2 | 96.2 | 65.6 | 33.2 | 107 | 97.8 | 68.9 | 36.8 | 112 | 82.9 | 68.8 | 34.3 | 106 | 86.2 | 63.5 | viability, T/C (second compound 0.03 µM, first compound 0.00316 µM): 100%; viability, T/C (second compound 0.03 µM, first compound 0.01 µM): 108%; viability, T/C (second compound 0.0949 µM, first compound 0.00316 µM): 105%; viability, T/C (second compound 0.0949 µM, first compound 0.01 µM): 109%; viability, T/C (second compound 0.3 µM, first compound 0.00316 µM): 107%; viability, T/C (second compound 0.3 µM, first compound 0.01 µM): 106%; viability, T/C (second compound 0.949 µM, first compound 0.00316 µM): 102%; viability, T/C (second compound 0.949 µM, first compound 0.01 µM): 110%; viability, T/C [16]: 41.8%; viability, T/C (second compound 3 µM, first compound 0.00316 µM): 99.5%; viability, T/C (second compound 3 µM, first compound 0.01 µM): 99.7%; viability, T/C [17]: 100%; viability, T/C [18]: 87.2%; viability, T/C [19]: 69.2%; viability, T/C [20]: 38.2%
C=C(F)C(=O)N1CCN(c2nc(OCC3CCCN3C)nc3c2CCN(c2cccc4cccc(Cl)c24)C3)CC1CC#N (stereo not given) + CCN1C(C(=O)NC23CCC(C(=O)O)(CC2)CC3)C(c2cccc(Cl)c2F)C2(C(=O)Nc3cc(Cl)ccc32)C12CCCCC2 | 2430 | 2640 | 2730 | 2740 | 2920 | 105 | 103 | 102 | 95.9 | 101 | 104 | 94.9 | 93.8 | 101 | 105 | 97.4 | 93.9 | 107 | 123 | 100 | viability, T/C [21]: 36.5%; viability, T/C [22]: 0.16%; viability, T/C [23]: 41.9%; viability, T/C [24]: 0.16%; viability, T/C [25]: 43.6%; viability, T/C [26]: 0.16%; viability, T/C [16]: 101%; viability, T/C [27]: 42.7%; viability, T/C [28]: 0.17%; viability, T/C [17]: 104%; viability, T/C [18]: 114%; viability, T/C [19]: 103%; viability, T/C [20]: 98.9%; viability, T/C [29]: 46.3%; viability, T/C [30]: 0.21%
C=CC(=O)N1CCN(c2nc(=O)n(-c3c(C)ccnc3C(C)C)c3nc(-c4c(O)cccc4F)c(F)cc23)C(C)C1 (stereo not given) + CCN1C(C(=O)NC23CCC(C(=O)O)(CC2)CC3)C(c2cccc(Cl)c2F)C2(C(=O)Nc3cc(Cl)ccc32)C12CCCCC2 | > 10000 | > 10000 | > 10000 | > 10000 | > 10000 | 94.8 | 114 | 106 | 103 | 110 | 92.6 | 98.1 | 104 | 98.4 | 121 | 106 | 112 | 94.9 | 109 | 106 | viability, T/C [21]: 114%; viability, T/C [22]: 89%; viability, T/C [23]: 111%; viability, T/C [24]: 88.5%; viability, T/C [25]: 105%; viability, T/C [26]: 98.5%; viability, T/C [16]: 120%; viability, T/C [27]: 110%; viability, T/C [28]: 84.2%; viability, T/C [17]: 109%; viability, T/C [18]: 109%; viability, T/C [19]: 106%; viability, T/C [20]: 109%; viability, T/C [29]: 109%; viability, T/C [30]: 93.2%
